Where two headings read alike, the source gives them in different places.
System: P. falciparum Dd2 (PfLuc) line expressing firefly luciferase, asexual blood stage
Assay: microbe, parasite or virus in culture
Type: cell-based, Plasmodium falciparum
Settings: Plasmodium falciparum
[1] = DD2, 8-pt dose response, 96hr, read-out: P. falciparum Luciferase ABS 8-pt Reconfirmation Dose Response (96hr): IC50
[2] = DD2, 8-pt dose response, 96hr, read-out: P. falciparum Luciferase ABS 8-pt Reconfirmation Dose Response (96hr): Maximum inhibition (%)
[3] = DD2, read-out: P. falciparum Luciferase ABS 11-pt Reconfirmation Dose Response (48hr): IC50, 11-pt dose response, 48hr
[4] = DD2, 11-pt dose response, 48hr, read-out: P. falciparum Luciferase ABS 11-pt Reconfirmation Dose Response (48hr): Maximum inhibition (%)
[5] = DD2, 11-pt dose response, 96hr, read-out: P. falciparum Luciferase ABS 11-pt Reconfirmation Dose Response (96hr): IC50
[6] = DD2, 11-pt dose response, 96hr, read-out: P. falciparum Luciferase ABS 11-pt Reconfirmation Dose Response (96hr): Maximum inhibition (%)
[7] = DD2, read-out: CDD P. falciparum Luciferase ABS 11-pt Reconfirmation Dose Response (48hr): IC50 (μM), 11-pt dose response, 48hr
[8] = DD2, 8-pt dose response, 96hr, read-out: CDD P. falciparum Luciferase ABS 8-pt Reconfirmation Dose Response (96hr): IC50
[9] = DD2, 8-pt dose response, 96hr, read-out: CDD P. falciparum Luciferase ABS 8-pt Reconfirmation Dose Response (96hr): Maximum inhibition (%)
[10] = DD2, 11-pt dose response, 48hr, read-out: CDD P. falciparum Luciferase ABS 11-pt Reconfirmation Dose Response (48hr): Maximum inhibition (%)
[11] = DD2, 11-pt dose response, 96hr, read-out: CDD P. falciparum Luciferase ABS 11-pt Reconfirmation Dose Response (96hr): IC50
[12] = DD2, 11-pt dose response, 96hr, read-out: CDD P. falciparum Luciferase ABS 11-pt Reconfirmation Dose Response (96hr): Maximum inhibition (%)

Structure (SMILES) | IC50 [1] [µM] | Emax [2] [%] | further results
O=S(=O)(NC[C@H]1C[C@@H]2CCN1C[C@@H]2CN1CCCC1)c1ccc(Cl)cc1 [DDD01024774] | 1.46 | 91 | 
CN(C[C@H]1CN2CC[C@H]1C[C@@H]2CNC(=O)c1ccco1)c1ccccc1 [DDD01024849] | 1.76 | 83.2 | 
O=C([C@@H]1Cc2[nH]cnc2CN1Cc1cc2ccccc2o1)N1CCCC1 [DDD01024952] | 1.42 | 91 | 
CCC1CN(CC(=O)NCCN2CCCCCC2)c2ccccc2S1 (centres unmarked) [DDD01025851] | 1.73 | 82.5 | 
CN1CC[C@H](N(Cc2ccccc2)CC2CC2)C[C@H](O)C1 [DDD01026225] | 1.29 | 82 | 
CC(C)n1ncc2c1NC(=O)CC21C(=O)Nc2c(Cl)ccc(Cl)c21 (centres unmarked) [DDD01027128] | 1.59 | 94.1 | 
CN1CCn2c(-c3cccc(F)c3)cnc2C12CCN(CC1CC1)CC2 [DDD01030549] | 1.2 | 84.4 | 
c1cncc(-c2ccc3c(c2)CCC32CCNCC2)c1 [DDD01031368] | 1.35 | 95.6 | 
Cc1ccc(CN2CCCC3(CCN(Cc4ccoc4)CC3)C2)cc1 [DDD01031609] | 1.16 | 88.7 | IC50 [3]: 3.17 µM; Emax [4]: 88.7%; IC50 [5]: 0.742 µM; Emax [6]: 98.3%
c1ccc(NC[C@@H]2CCC[C@@H]3CN(Cc4cccnc4)C[C@@H]32)nc1 [DDD01032334] | 1.72 | 81.5 | 
COc1cccc(-n2ccc3nc(N4CCCC4)ncc3c2=O)c1 [DDD01034957] | 1.6 | 95.4 | IC50 [3]: > 4.16 µM; Emax [4]: 13.2%; IC50 [5]: 0.531 µM; Emax [6]: 98.6%
Fc1ccc(Sc2ccccc2CNC2=NCCN2)cc1 [DDD01035542] | 1.81 | 81.8 | 
Fc1ccccc1Sc1ccccc1CNC1=NCCN1 [DDD01035543] | 1.57 | 83.6 | 
O=C(Cn1ccc2ccc(Br)cc21)NC[C@@H]1CCCN2CCCC[C@H]12 [DDD01035644] | 2.57 | 81.8 | 
c1cnc(N2CCC3(CC2)CN(CC2CC2)c2ccccc23)nc1 [DDD01036239] | 1.74 | 90.6 | 
COc1ccc(CN2CC[C@@H](O)[C@@H]2Cc2ccccc2)cc1 [DDD01037044] | 1.83 | 77.4 | 
CCc1ccc(-c2cc(C(F)(F)F)nc(N3CCC(N)CC3)n2)cc1 [DDD01037626] | 1.72 | 93.8 | IC50 [3]: 1.86 µM; Emax [4]: 98.9%; IC50 [5]: 0.828 µM; Emax [6]: 100%
Cc1cc(C)n(CCCn2cncc2-c2ccc3c(c2)CC(C)N3C)n1 (centres unmarked) [DDD01056528] | 1.7 | 94.8 | 
Cc1nn(C)c(C)c1CCn1cncc1-c1ccc2c(c1)CC(C)N2C (centres unmarked) [DDD01056530] | 1.85 | 94.7 | 
CN(C)CCn1nc(C2CCN(Cc3ccccc3)C2)c2cccnc21 (centres unmarked) [DDD01056665] | 1.99 | 70.9 | 

Structure (SMILES) | IC50 [1] [µM] | Emax [2] [%] | further results
Cc1cc(Cc2cccc(C(F)(F)F)c2)cc(C2CCCNC2)n1 (centres unmarked) [DDD01057885] | 1.24 | 92 | IC50 [3]: 4.53 µM; IC50 [5]: 0.958 µM; Emax [6]: 100%
COc1cccc(OC)c1CNC(Cc1ccsc1)c1ccc(C)cn1 (centres unmarked) [DDD01058770] | 1.56 |  | 
CCn1cncc1CN1CCN(CC2(c3ccc(C)cc3)CC2)CC1 [DDD01059073] | 1.26 | 85.6 | 
CN(C(=O)c1ccon1)[C@@H]1CCC[C@@H](Oc2ccccc2)[C@@H]1O [DDD01059734] | 1.12 | 85.7 | 
CN1CCCCC1c1ncc2c(n1)CCN(Cc1ccc(F)cc1)C2 (centres unmarked) [DDD01059924] | 1.65 | 84.5 | 
Cc1cc(C)c2cc(CNC3CCCCC3)c3nn(C)c(=O)n3c2c1 [DDD01060652] | 1.15 | 88.2 | 
Cc1cnccc1CN1CC[C@H](Oc2cccc(F)c2)[C@@](C)(O)C1 [DDD01060866] | 1.79 | 91.8 | 
CCCOc1ccccc1CN[C@@H]1CCC[C@H]1Cc1cc(C)no1 [DDD01060989] | 2.71 | 79.8 | 
COc1cccc([C@H]2CN(C(C)=O)[C@@H]3CCN(Cc4ccsc4)C[C@H]23)c1 [DDD01061089] | 1.31 | 82.2 | 
CCC(CC)(CN)NC(C)c1ccccc1 (centres unmarked) [DDD01061915] |  |  | IC50 [7]: > 12.5 µM; IC50 [8]: 1.02 µM; Emax [9]: 85.9%; Emax [10]: 49.2%; IC50 [11]: > 1.39 µM; Emax [12]: 87.7%
Cn1ccnc1C(O)(CCNCc1ccc(Cl)o1)C(F)(F)F (centres unmarked) [DDD01062848] | 2.81 | 78.7 | 
Clc1cc(CN2CCCN3CCCC3C2)c2ncccc2c1 (centres unmarked) [DDD01063271] | 1.74 | 93 | 
Cn1ccnc1CNC1CCCOc2c1ccc1ccccc21 (centres unmarked) [DDD01063614] | 1.52 | 80.3 | 
CC(O)CN1CCC(CN(C)Cc2cc(F)cc3cccnc23)CC1 (centres unmarked) [DDD01063726] | 1.33 | 92.8 | 
CC(C)(NCc1cccc(O)c1)c1ccc2c(c1)OCO2 [DDD01063924] | 1.21 | 84.9 | 
CC(NCCc1nccn1Cc1ccccc1)c1cccs1 (centres unmarked) [DDD01065609] | 1.39 | 85.7 | 
Cc1ccc(C(C)NCCc2nccn2Cc2ccccc2)o1 (centres unmarked) [DDD01065613] | 1.62 | 82.8 | 
CCC(CNC(=O)CNC(C)=O)Oc1cccc(F)c1 (centres unmarked) [DDD01066100] | 2.09 | 83.9 | IC50 [3]: 6.31 µM; Emax [4]: 55.6%; IC50 [5]: 2.15 µM; Emax [6]: 83.4%
CN(C)CCN(Cc1cccnc1)C(=O)c1ccn(-c2ccccc2)n1 [DDD01066387] | 1.43 | 81.1 | 
CCN(C)CC1CCN(S(=O)(=O)c2cc(C)c(F)cc2Cl)C1 (centres unmarked) [DDD01067996] | 1.72 | 86.1 | 

Structure (SMILES) | IC50 [1] [µM] | Emax [2] [%] | further results
CCN1CCC(CNCc2cc(C)ccc2OC)C1 (centres unmarked) [DDD01069824] | 1.26 | 90.1 | 
CNS(=O)(=O)c1cccc(C(C)NCc2ccccc2OC)c1 (centres unmarked) [DDD01069885] | 1.18 | 80.1 | 
O=C(CCN1CCCC1c1cccc2c1OCCO2)N1CCCCC1 (centres unmarked) [DDD01070009] |  |  | IC50 [7]: 6.96 µM; IC50 [8]: 1.06 µM; Emax [9]: 80.3%; Emax [10]: 51%; IC50 [11]: 2.64 µM; Emax [12]: 84.9%
CCN(CC1CN(Cc2nc(C3CC3)no2)CCO1)c1cccnn1 (centres unmarked) [DDD01070232] | 1.86 | 79.6 | 
Fc1ccc2c(C3=CCN(Cc4nnc(C5CCC5)o4)CC3)c[nH]c2c1 [DDD01071325] | 1.7 | 88.7 | 
Cc1cn2c(n1)C(CNCC1=Cc3cc(Cl)ccc3OC1)CCC2 (centres unmarked) [DDD01073229] | 1.71 |  | 
COc1ccccc1C(C)(C)NCc1ccc(C)o1 [DDD01074244] | 1.77 | 82.7 | 
CC(=O)N(c1ccc(C)cc1)c1nc(CN2CCCC(C)C2)cs1 (centres unmarked) [DDD01075341] | 1.83 | 86.4 | 
CCC(NCc1ccccc1Cl)c1ccccc1OCC(=O)NC (centres unmarked) [DDD01075649] | 1.9 | 81.7 | IC50 [3]: > 12.5 µM; Emax [4]: 57.7%; IC50 [5]: 3.66 µM; Emax [6]: 86.1%
CCC(NCc1ccccc1C)c1ccccc1OCC(=O)NC (centres unmarked) [DDD01075651] |  |  | IC50 [7]: > 12.5 µM; IC50 [8]: 0.85 µM; Emax [9]: 76.9%; Emax [10]: 60.7%; IC50 [11]: 2.43 µM; Emax [12]: 84.1%
CCC(NCc1cccc(Cl)c1)c1ccccc1OCC(=O)NC (centres unmarked) [DDD01075652] | 1.31 | 76.5 | 
CC(C)Oc1ccc(C(O)CNCc2ccccc2C(F)(F)F)cc1 (centres unmarked) [DDD01076007] | 1.5 | 80.1 | 
Cc1cnn(CCCNCc2csc(COc3ccccc3)n2)c1 [DDD01077297] | 1.25 | 85.8 | IC50 [3]: 7.24 µM; Emax [4]: 63.7%; IC50 [5]: 1.2 µM; Emax [6]: 86.7%
CO[C@@H]1CCN(Cc2ccoc2)C[C@@H]1Cc1ccccc1 [DDD01081909] |  |  | IC50 [8]: 1.08 µM; Emax [9]: 85.9%
FC1(F)CCN(Cc2cccnc2)CC12CCN(c1ccccc1)C2 (centres unmarked) [DDD01082961] | 1.65 | 91.5 | 
Fc1cnc(N2CCCC3(CCN(Cc4ccoc4)C3)C2)nc1 (centres unmarked) [DDD01084184] | 1.79 | 83.1 | 
CC(C)[C@H](CO)Nc1nccc(-c2c[nH]nc2-c2ccncc2)n1 [DDD01235869] | 1.69 | 82 | 
CC(Nc1nc(-c2ccccc2)nc2c1CCNCC2)c1cccnc1 (centres unmarked) [DDD01244613] | 1.58 | 92.9 | 
Cc1ncc(CN(C)C2CCCN(CCc3ccccc3)C2)n1C (centres unmarked) [DDD01244648] |  |  | IC50 [7]: 6.24 µM; IC50 [8]: 0.88 µM; Emax [9]: 88.5%; Emax [10]: 55.1%; IC50 [11]: 1.78 µM; Emax [12]: 88.7%
CC(C)=CCN1CCC2(CC1)c1ccccc1[C@@H](N1CCSCC1)[C@@H]2O [DDD01245335] | 1.31 | 82.4 | 
